Measurements reported in BindingDB's records for doi:10.1016/s0028-3908(05)80009-7 (Universit&Eacute, 1994).
Where a SMILES comes first, the peptide text is derived from it. [ ]: non-standard residue; d: D form. ξ: configuration not given here. Ile(3ξ) = CCC(C)[C@H](N)C(=O)O

These compounds were tested against T1, Pituitary adenylate cyclase-activating polypeptide (Rattus norvegicus, UniProt P13589).
T1 sequence (P13589 whole entry): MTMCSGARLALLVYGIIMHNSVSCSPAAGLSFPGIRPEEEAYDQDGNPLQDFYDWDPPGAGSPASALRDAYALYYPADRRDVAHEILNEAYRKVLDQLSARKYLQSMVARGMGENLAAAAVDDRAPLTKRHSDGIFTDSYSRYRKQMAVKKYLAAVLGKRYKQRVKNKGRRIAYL

| Compound | Ki [nM] |
| --- | --- |
| CC[C@H](C)[C@H](NC(=O)CNC(=O)[C@H](CC(=O)O)NC(=O)[C@H](CCCN=C(N)N)NC(=O)[C@@H](N)Cc1cnc[nH]1)C(=O)N[C@@H](Cc1ccccc1)C(=O)N[C@H](C(=O)N[C@@H](CC(=O)O)C(=O)N[C@@H](CO)C(=O)N[C@@H](Cc1ccc(O)cc1)C(=O)N[C@@H](CO)C(=O)N[C@@H](CCCN=C(N)N)C(=O)N[C@@H](Cc1ccc(O)cc1)C(=O)N[C@@H](CCCN=C(N)N)C(=O)N[C@@H](CCCCN)C(=O)N[C@@H](CCC(N)=O)C(=O)N[C@@H](CCSC)C(=O)N[C@@H](C)C(=O)N[C@H](C(=O)N[C@@H](CCCCN)C(=O)N[C@@H](CCCCN)C(=O)N[C@@H](Cc1ccc(O)cc1)C(=O)N[C@@H](CC(C)C)C(=O)N[C@@H](C)C(=O)N[C@@H](C)C(=O)N[C@H](C(=O)N[C@@H](CC(C)C)C(=O)NCC(=O)N[C@@H](CCCCN)C(=O)N[C@@H](CCCN=C(N)N)C(=O)N[C@@H](Cc1ccc(O)cc1)C(=O)N[C@@H](CCCCN)C(=O)N[C@@H](CCC(N)=O)C(=O)N[C@@H](CCCN=C(N)N)C(=O)N[C@H](C(=O)N[C@@H](CCCCN)C(=O)N[C@@H](CC(N)=O)C(=O)N[C@@H](CCCCN)C(N)=O)C(C)C)C(C)C)C(C)C)[C@@H](C)O [[Arg2]PACAP(1-38)] | 10 |
| H-TDSYSRYRKQMAVKKYLAAVL-NH2 [PACAP(6-27)] | 3000 |
| CC[C@H](C)[C@H](NC(=O)CNC(=O)[C@H](CC(=O)O)NC(=O)[C@H](C)NC(=O)[C@@H](N)Cc1cnc[nH]1)C(=O)N[C@@H](Cc1ccccc1)C(=O)N[C@H](C(=O)N[C@@H](CC(=O)O)C(=O)N[C@@H](CO)C(=O)N[C@@H](Cc1ccc(O)cc1)C(=O)N[C@@H](CO)C(=O)N[C@@H](CCCNC(=N)N)C(=O)N[C@@H](Cc1ccc(O)cc1)C(=O)N[C@@H](CCCNC(=N)N)C(=O)N[C@@H](CCCCN)C(=O)N[C@@H](CCC(N)=O)C(=O)N[C@@H](CCSC)C(=O)N[C@@H](C)C(=O)N[C@H](C(=O)N[C@@H](CCCCN)C(=O)N[C@@H](CCCCN)C(=O)N[C@@H](Cc1ccc(O)cc1)C(=O)N[C@@H](CC(C)C)C(=O)N[C@@H](C)C(=O)N[C@@H](C)C(=O)N[C@H](C(=O)N[C@@H](CC(C)C)C(=O)NCC(=O)N[C@@H](CCCCN)C(=O)N[C@@H](CCCNC(=N)N)C(=O)N[C@@H](Cc1ccc(O)cc1)C(=O)N[C@@H](CCCCN)C(=O)N[C@@H](CCC(N)=O)C(=O)N[C@@H](CCCNC(=N)N)C(=O)N[C@H](C(=O)N[C@@H](CCCCN)C(=O)N[C@@H](CC(N)=O)C(=O)N[C@@H](CCCCN)C(N)=O)C(C)C)C(C)C)C(C)C)[C@@H](C)O | 0.5 |
| CCC(C)[C@H](NC(=O)CNC(=O)[C@H](CC(=O)O)NC(=O)[C@@H](N)CO)C(=O)N[C@@H](Cc1ccccc1)C(=O)N[C@H](C(=O)N[C@@H](CC(=O)O)C(=O)N[C@@H](CO)C(=O)N[C@@H](Cc1ccc(O)cc1)C(=O)N[C@@H](CO)C(=O)N[C@@H](CCCN=C(N)N)C(=O)N[C@@H](Cc1ccc(O)cc1)C(=O)N[C@@H](CCCN=C(N)N)C(=O)N[C@@H](CCCCN)C(=O)N[C@@H](CCC(N)=O)C(=O)N[C@@H](CCSC)C(=O)N[C@@H](C)C(=O)N[C@H](C(=O)N[C@@H](CCCCN)C(=O)N[C@@H](CCCCN)C(=O)N[C@@H](Cc1ccc(O)cc1)C(=O)N[C@@H](CC(C)C)C(=O)N[C@@H](C)C(=O)N[C@@H](C)C(=O)N[C@H](C(=O)N[C@@H](CC(C)C)C(=O)NCC(=O)N[C@@H](CCCCN)C(=O)N[C@@H](CCCN=C(N)N)C(=O)N[C@@H](Cc1ccc(O)cc1)C(=O)N[C@@H](CCCCN)C(=O)N[C@@H](CCC(N)=O)C(=O)N[C@@H](CCCN=C(N)N)C(=O)N[C@H](C(=O)N[C@@H](CCCCN)C(=O)N[C@@H](CC(N)=O)C(=O)N[C@@H](CCCCN)C(N)=O)C(C)C)C(C)C)C(C)C)[C@@H](C)O (some centres undefined) [PACAP(2-38)] (H-SDG[Ile(3ξ)]FTDSYSRYRKQMAVKKYLAAVLGKRYKQRVKNK-NH2) | 3 |
| H-DSYSRYRKQMAVKKYLAAVLGKRYKQRVKNK-NH2 [PACAP(8-38)] | 30 |
| H-SYSRYRKQMAVKKYLAAVLGKRYKQRVKNK-NH2 [PACAP(9-38)] | 30 |
| CCC(C)[C@H](NC(=O)CNC(=O)[C@@H](N)CC(=O)O)C(=O)N[C@@H](Cc1ccccc1)C(=O)N[C@H](C(=O)N[C@@H](CC(=O)O)C(=O)N[C@@H](CO)C(=O)N[C@@H](Cc1ccc(O)cc1)C(=O)N[C@@H](CO)C(=O)N[C@@H](CCCN=C(N)N)C(=O)N[C@@H](Cc1ccc(O)cc1)C(=O)N[C@@H](CCCN=C(N)N)C(=O)N[C@@H](CCCCN)C(=O)N[C@@H](CCC(N)=O)C(=O)N[C@@H](CCSC)C(=O)N[C@@H](C)C(=O)N[C@H](C(=O)N[C@@H](CCCCN)C(=O)N[C@@H](CCCCN)C(=O)N[C@@H](Cc1ccc(O)cc1)C(=O)N[C@@H](CC(C)C)C(=O)N[C@@H](C)C(=O)N[C@@H](C)C(=O)N[C@H](C(=O)N[C@@H](CC(C)C)C(N)=O)C(C)C)C(C)C)[C@@H](C)O (some centres undefined) [PACAP(3-27)] (H-DG[Ile(3ξ)]FTDSYSRYRKQMAVKKYLAAVL-NH2) | 3000 |
| H-YSRYRKQMAVKKYLAAVLGKRYKQRVKNK-NH2 [PACAP(10-38)] | 90 |
| H-SRYRKQMAVKKYLAAVLGKRYKQRVKNK-NH2 [PACAP(11-38)] | 100 |
| CC[C@H](C)[C@H](NC(=O)CNC(=O)[C@H](CC(N)=O)NC(=O)[C@H](CO)NC(=O)[C@@H](N)Cc1cnc[nH]1)C(=O)N[C@@H](Cc1ccccc1)C(=O)N[C@H](C(=O)N[C@@H](CC(=O)O)C(=O)N[C@@H](CO)C(=O)N[C@@H](Cc1ccc(O)cc1)C(=O)N[C@@H](CO)C(=O)N[C@@H](CCCNC(=N)N)C(=O)N[C@@H](Cc1ccc(O)cc1)C(=O)N[C@@H](CCCNC(=N)N)C(=O)N[C@@H](CCCCN)C(=O)N[C@@H](CCC(N)=O)C(=O)N[C@@H](CCSC)C(=O)N[C@@H](C)C(=O)N[C@H](C(=O)N[C@@H](CCCCN)C(=O)N[C@@H](CCCCN)C(=O)N[C@@H](Cc1ccc(O)cc1)C(=O)N[C@@H](CC(C)C)C(=O)N[C@@H](C)C(=O)N[C@@H](C)C(=O)N[C@H](C(=O)N[C@@H](CC(C)C)C(N)=O)C(C)C)C(C)C)[C@@H](C)O [[Asn3]PACAP(1-27)] | 4000 |
| CC[C@H](C)[C@H](NC(=O)CNC(=O)[C@H](CC(=O)O)NC(=O)[C@@H](CCCN=C(N)N)NC(=O)[C@@H](N)Cc1cnc[nH]1)C(=O)N[C@@H](Cc1ccccc1)C(=O)N[C@H](C(=O)N[C@@H](CC(=O)O)C(=O)N[C@@H](CO)C(=O)N[C@@H](Cc1ccc(O)cc1)C(=O)N[C@@H](CO)C(=O)N[C@@H](CCCN=C(N)N)C(=O)N[C@@H](Cc1ccc(O)cc1)C(=O)N[C@@H](CCCN=C(N)N)C(=O)N[C@@H](CCCCN)C(=O)N[C@@H](CCC(N)=O)C(=O)N[C@@H](CCSC)C(=O)N[C@@H](C)C(=O)N[C@H](C(=O)N[C@@H](CCCCN)C(=O)N[C@@H](CCCCN)C(=O)N[C@@H](Cc1ccc(O)cc1)C(=O)N[C@@H](CC(C)C)C(=O)N[C@@H](C)C(=O)N[C@@H](C)C(=O)N[C@H](C(=O)N[C@@H](CC(C)C)C(N)=O)C(C)C)C(C)C)[C@@H](C)O [[DArg2]PACAP(1-27)] | 500 |
| CC[C@H](C)[C@H](NC(=O)CNC(=O)[C@H](CC(=O)O)NC(=O)[C@H](CO)NC(=O)[C@@H](N)Cc1cnc[nH]1)C(=O)N[C@@H](Cc1ccccc1)C(=O)N[C@H](C(=O)N[C@@H](CC(=O)O)C(=O)N[C@@H](CO)C(=O)N[C@@H](Cc1ccc(O)cc1)C(=O)N[C@@H](CO)C(=O)N[C@@H](CCCNC(=N)N)C(=O)N[C@@H](Cc1ccc(O)cc1)C(=O)N[C@@H](CCCNC(=N)N)C(=O)N[C@@H](CCCCN)C(=O)N[C@@H](CCC(N)=O)C(=O)N[C@@H](CCSC)C(=O)N[C@@H](C)C(=O)N[C@H](C(=O)N[C@@H](CCCCN)C(=O)N[C@@H](CCCCN)C(=O)N[C@@H](Cc1ccc(O)cc1)C(=O)N[C@@H](CC(C)C)C(=O)N[C@@H](C)C(=O)N[C@@H](C)C(=O)N[C@H](C(=O)N[C@@H](CC(C)C)C(=O)NCC(=O)N[C@@H](CCCCN)C(=O)N[C@@H](CCCNC(=N)N)C(=O)N[C@@H](Cc1ccc(O)cc1)C(=O)N[C@@H](CCCCN)C(=O)N[C@@H](CCC(N)=O)C(=O)N[C@@H](CCCNC(=N)N)C(=O)N[C@H](C(=O)N[C@@H](CCCCN)C(=O)N[C@@H](CC(N)=O)C(=O)N[C@@H](CCCCN)C(N)=O)C(C)C)C(C)C)C(C)C)[C@@H](C)O [PACAP] | 0.3 |
| H-TDSYSRYRKQMAVKKYLAAVLGKRYKQRVKNK-NH2 [PACAP(7-38)] | 10 |
| CCC(C)[C@H](NC(=O)CNC(=O)[C@H](CC(=O)O)NC(=O)[C@@H](C)NC(=O)[C@@H](N)Cc1cnc[nH]1)C(=O)N[C@@H](Cc1ccccc1)C(=O)N[C@H](C(=O)N[C@@H](CC(=O)O)C(=O)N[C@@H](CO)C(=O)N[C@@H](Cc1ccc(O)cc1)C(=O)N[C@@H](CO)C(=O)N[C@@H](CCCN=C(N)N)C(=O)N[C@@H](Cc1ccc(O)cc1)C(=O)N[C@@H](CCCN=C(N)N)C(=O)N[C@@H](CCCCN)C(=O)N[C@@H](CCC(N)=O)C(=O)N[C@@H](CCSC)C(=O)N[C@@H](C)C(=O)N[C@H](C(=O)N[C@@H](CCCCN)C(=O)N[C@@H](CCCCN)C(=O)N[C@@H](Cc1ccc(O)cc1)C(=O)N[C@@H](CC(C)C)C(=O)N[C@@H](C)C(=O)N[C@@H](C)C(=O)N[C@H](C(=O)N[C@@H](CC(C)C)C(=O)NCC(=O)N[C@@H](CCCCN)C(=O)N[C@@H](CCCN=C(N)N)C(=O)N[C@@H](Cc1ccc(O)cc1)C(=O)N[C@@H](CCCCN)C(=O)N[C@@H](CCC(N)=O)C(=O)N[C@@H](CCCN=C(N)N)C(=O)N[C@H](C(=O)N[C@@H](CCCCN)C(=O)N[C@@H](CC(N)=O)C(=O)N[C@@H](CCCCN)C(N)=O)C(C)C)C(C)C)C(C)C)[C@@H](C)O (some centres undefined) [[DAla2]PACAP(1-38)] | 0.7 |
